In ChEMBL document CHEMBL3507680, “University of Dundee, Gates Library screen for HepG2 cell viability”:

Experiment: Human HepG2 cell viability assay in 384 well format
Assay type: toxicity, cell-based
Parameters: dose 125 nL, time 70.5 hour; cytotoxicity at 70.5 h: concentration not given beside the values
Conditions: HepG2 cells, read-out: Inhibition

Compound: CCCN(C(=O)c1ccncc1)c1nc2c(s1)CCc1c-2cnn1C
- cytotoxicity at 70.5 h: 18.2%

Compound: COCCN(C(=O)c1cnccn1)c1nc2c(s1)CCc1c-2cnn1C
- cytotoxicity at 70.5 h: 7%

Compound: CCCn1cc(CN2CCCC2c2nccc(CN(C)C)n2)cn1 (centres undefined)
- cytotoxicity at 70.5 h: 21.3%

Compound: Cc1nc2c(c(=O)[nH]1)CCN(C(=O)c1cccc3nccnc13)C2
- cytotoxicity at 70.5 h: 0.0996%

Compound: O=C(c1cccnc1)N1CCc2c(nc(N3CCCC3)[nH]c2=O)C1
- cytotoxicity at 70.5 h: -4.95%

Compound: O=C(c1ccco1)N1CCC(n2nc(-c3cccs3)ccc2=O)CC1
- cytotoxicity at 70.5 h: -5.47%

Compound: O=C(c1ccco1)N1CCC(n2nc(-c3ccco3)ccc2=O)CC1
- cytotoxicity at 70.5 h: -3.82%

Compound: O=C(C1CCCCC1)N1CCC(n2nc(-c3ccco3)ccc2=O)CC1
- cytotoxicity at 70.5 h: -0.841%

Compound: Cc1nc(O)c2nnn(C[C@H]3CCCN3C(=O)c3ccccc3F)c2n1
- cytotoxicity at 70.5 h: -0.74%

Compound: O=C(O)CCc1cccc(C2CCCN2Cc2cccc(Cl)c2)n1 (centres undefined)
- cytotoxicity at 70.5 h: -0.284%

Compound: CN1CCC(c2cccc(CCC(=O)NCC(N)=O)n2)CC1
- cytotoxicity at 70.5 h: -5.22%

Compound: Cn1cc(C(=O)N2CCCC(c3ccncc3)C2)cn1 (centres undefined)
- cytotoxicity at 70.5 h: -7.32%

Compound: CN1CCCC[C@@H]2[C@H]1[C@@H](c1ccccc1)CCN2C(=O)c1ccccn1
- cytotoxicity at 70.5 h: -9.11%

Compound: CCCC(=O)NCCc1cc(N2CCN(C(C)=O)CC2)nc(C2CC2)n1
- cytotoxicity at 70.5 h: -6.31%

Compound: CNC(=O)C1(c2cnccn2)CCCN1C(=O)c1ccccc1C (centres undefined)
- cytotoxicity at 70.5 h: 15.3%

Compound: Cc1nnsc1C(=O)N1CC[C@H](c2ccccc2)[C@@H]2[C@H]1CCCCN2C
- cytotoxicity at 70.5 h: -3.09%

Compound: Cc1cc(C(=O)N2CCCC2c2nc(C)cc(O)n2)on1 (centres undefined)
- cytotoxicity at 70.5 h: -8.09%

Compound: CCc1c(C)nc2cc(C3CCN(Cc4cccc(F)c4)C3)nn2c1O (centres undefined)
- cytotoxicity at 70.5 h: -7.92%

Compound: CCc1c(C)nc2cc(C3CCN(Cc4cccnc4)C3)nn2c1O (centres undefined)
- cytotoxicity at 70.5 h: -5.28%

Compound: Cc1n[nH]cc1CNCC1(c2ccccc2Cl)CCOCC1
- cytotoxicity at 70.5 h: -4.88%

Compound: CCCN(CC)Cn1ncc2cn(-c3ccccc3)nc2c1=O
- cytotoxicity at 70.5 h: -2.92%

Compound: NC(=O)CC1CCN(S(=O)(=O)c2cnn(-c3ccccc3)c2)CC1
- cytotoxicity at 70.5 h: -5.73%

Compound: NC(=O)C1CCN(S(=O)(=O)c2cnn(-c3ccccc3)c2)C1 (centres undefined)
- cytotoxicity at 70.5 h: -3.49%

Compound: CCN(Cc1ccc(C#N)cc1F)C(=O)CN(C)CC(N)=O
- cytotoxicity at 70.5 h: -4.58%

Compound: CC(c1nc(C2CC2)no1)N1CCN(CCS(C)(=O)=O)CC1 (centres undefined)
- cytotoxicity at 70.5 h: -4.19%

Compound: COc1ccc(Cl)cc1NCC(=O)N(Cc1ccncc1)C1CC1
- cytotoxicity at 70.5 h: 15.5%

Compound: CC(C)(C)CCS(=O)(=O)NCCc1csc(N2CCCC2)n1
- cytotoxicity at 70.5 h: -2.83%

Compound: CS(=O)(=O)CCNC(=O)NCCc1cc2ccccc2o1
- cytotoxicity at 70.5 h: -4.01%

Compound: OC1(CNc2ccc(Br)cn2)CCOCC1
- cytotoxicity at 70.5 h: -2.5%

Compound: CNS(=O)(=O)CC1CCCN1c1ccc(Cl)cn1 (centres undefined)
- cytotoxicity at 70.5 h: -1.45%

Compound: Cc1csc(CN(C)C2CCN(c3sccc3C#N)C2=O)n1 (centres undefined)
- cytotoxicity at 70.5 h: 16%

Compound: CCCc1noc(C(C)N2CCN(CCn3ccccc3=O)CC2)n1 (centres undefined)
- cytotoxicity at 70.5 h: -2.24%

Compound: CCS(=O)(=O)NCCNC(C)(C)c1nc(C)cs1
- cytotoxicity at 70.5 h: -2.97%

Compound: CCCN(C(=O)CN1CCN(CCO)CC1)C1=CCCCC1
- cytotoxicity at 70.5 h: -0.879%

Compound: CCN(C(=O)CN1CCN(CC(C)O)CC1)C1=CCCCC1 (centres undefined)
- cytotoxicity at 70.5 h: -3.37%

Compound: COc1c(C2CCCN2c2ncnc3sccc23)c(C)nn1C (centres undefined)
- cytotoxicity at 70.5 h: -2.24%

Compound: COc1c(C2CCCN2c2ncnc3c2cnn3C)c(C)nn1C (centres undefined)
- cytotoxicity at 70.5 h: -5.32%

Compound: CC(C)c1cc(C(=O)N2CCc3ccccc3C2C(=O)O)nn1C (centres undefined)
- cytotoxicity at 70.5 h: -1.42%

Compound: CCC(=O)NCC(=O)N(C)C(c1ccc(Cl)cc1)c1cccnc1 (centres undefined)
- cytotoxicity at 70.5 h: -1.51%

Compound: CN(Cc1ccco1)C(=O)CN1C(=O)c2ccccc2C1=O
- cytotoxicity at 70.5 h: -2.38%

Compound: O=C1NCCCCC1Sc1ccc(F)c(F)c1 (centres undefined)
- cytotoxicity at 70.5 h: -13.1%

Compound: Cn1nc2c(c1NC(=O)c1cccs1)CCC2
- cytotoxicity at 70.5 h: -12.2%

Compound: CN(Cc1cccs1)C(=O)CN1C(=O)c2cc(Cl)c(Cl)cc2C1=O
- cytotoxicity at 70.5 h: -13.1%

Compound: Cc1nc(NC2CCN(C(=O)C3CC3)CC2)c2cnn(C)c2n1
- cytotoxicity at 70.5 h: -11.5%

Compound: COCCNC(=O)c1ccc(NCc2c(C)noc2C)cc1Cl
- cytotoxicity at 70.5 h: -6.64%

Compound: NC(=O)CCN(CC(=O)NCc1cccs1)c1ccc(F)cc1
- cytotoxicity at 70.5 h: -6.81%

Compound: CC(NC(=O)CN(C)C(C)C)c1ccc(Oc2cccnc2)c(F)c1 (centres undefined)
- cytotoxicity at 70.5 h: -4.91%

Compound: CSCC(=O)N1CCOC(c2nc(C)n[nH]2)C1 (centres undefined)
- cytotoxicity at 70.5 h: -12.3%

Compound: CS(=O)(=O)CCCN1CCN(C(C#N)c2ccccc2)CC1 (centres undefined)
- cytotoxicity at 70.5 h: 0.393%

Compound: CCS(=O)(=O)NCCN1CCN(C(C#N)c2ccccc2)CC1 (centres undefined)
- cytotoxicity at 70.5 h: -9.85%

Compound: CC(C)C1CN(C(=O)c2cc(F)cc3[nH]cnc23)CCS1 (centres undefined)
- cytotoxicity at 70.5 h: -2.35%

Compound: CC1(C)CCN1C(=O)c1cc(F)cc2[nH]cnc12
- cytotoxicity at 70.5 h: -9.74%

Compound: CNC(=O)c1ccc(CN2CCN(C3=NCC(C)(C)S3)CC2)cc1
- cytotoxicity at 70.5 h: 17.7%

Compound: COC(=O)c1ccc(NCc2csc(C)n2)cc1Cl
- cytotoxicity at 70.5 h: -6.69%

Compound: CN(Cc1ccsc1)C(=O)CNC(=O)N1CCc2ccccc2C1
- cytotoxicity at 70.5 h: -7.67%

Compound: CN(Cc1ccccn1)C(=O)CNC(=O)N1CCc2ccccc2C1
- cytotoxicity at 70.5 h: -10.7%

Compound: COc1ccc(F)cc1CN(CC(N)=O)C(C)C
- cytotoxicity at 70.5 h: -3.68%

Compound: CC(C(N)=O)N1CCN(c2ncc(Br)cn2)CC1 (centres undefined)
- cytotoxicity at 70.5 h: 0.267%

Compound: Cc1noc(C(C)C)c1C(=O)N1CCC(n2cccn2)CC1
- cytotoxicity at 70.5 h: 13.2%

Compound: COc1ccc(Cl)cc1CN(CC(N)=O)C(C)C
- cytotoxicity at 70.5 h: -4.98%

Compound: Cc1ccc(C)c(CN(CC(N)=O)C(C)C)c1
- cytotoxicity at 70.5 h: -1.28%

Compound: Cc1noc(C)c1S(=O)(=O)N1CCC(n2cccn2)CC1
- cytotoxicity at 70.5 h: -5.3%

Compound: CCN(Cc1cccnc1)C1CCN(c2ccccc2)C1=O (centres undefined)
- cytotoxicity at 70.5 h: -3.8%

Compound: Cc1c(NC(=O)N(C)CCO)cccc1OC1CCCC1
- cytotoxicity at 70.5 h: -7.3%

Compound: Cc1nn(C)c(C)c1C1CCCN1C(=O)c1cc(C(N)=O)cs1 (centres undefined)
- cytotoxicity at 70.5 h: -6.04%

Compound: CC(C)c1ccccc1OCCNC(=O)N1CCC(CC(N)=O)CC1
- cytotoxicity at 70.5 h: -4.04%

Compound: COCCC(=O)N(CCC#N)c1ccc(C)c(C)c1
- cytotoxicity at 70.5 h: -3.89%

Compound: N#CCCN(C(=O)CCc1cscn1)c1ccc2c(c1)OCCO2
- cytotoxicity at 70.5 h: 16.5%

Compound: CCOc1cc(F)ccc1NC1CCN(CC(F)(F)F)C1=O (centres undefined)
- cytotoxicity at 70.5 h: -0.756%

Compound: Cc1cc(C)c(C(=O)N(C)CCN(C)C(=O)c2[nH]c(C)cc2C)[nH]1
- cytotoxicity at 70.5 h: -6.06%

Compound: CN1CCC(Nc2cc(Cl)ccc2OCC(F)(F)F)C1=O (centres undefined)
- cytotoxicity at 70.5 h: -1.29%

Compound: Cc1sc(C(=O)N(C)S(C)(=O)=O)cc1-c1ccc(F)cc1
- cytotoxicity at 70.5 h: -2.76%

Compound: Cc1sc(C(=O)NS(C)(=O)=O)cc1-c1ccc(F)cc1
- cytotoxicity at 70.5 h: -4.18%

Compound: NC(=O)c1ccc(NC2CCOC3(CCCC3)C2)nn1 (centres undefined)
- cytotoxicity at 70.5 h: 17.2%

Compound: Cc1c(NC(=O)N(C)CCn2cnnc2)cccc1OC1CCCC1
- cytotoxicity at 70.5 h: -4.56%

Compound: Cc1cnc(N2CCN(C(C)C(N)=O)CC2)nc1 (centres undefined)
- cytotoxicity at 70.5 h: -1.41%

Compound: CCCOc1cc(CNC(=O)Nc2ccccn2)ccn1
- cytotoxicity at 70.5 h: 45.7%

Compound: CCNC(=O)CN1CCc2c(Br)ccc(F)c2C1
- cytotoxicity at 70.5 h: 5.62%

Compound: O=C(NCCN1CCOCC1)NCc1cccnc1-n1cccn1
- cytotoxicity at 70.5 h: -2.89%

Compound: O=C(CCC(=O)N1CCOCC1)NCc1cccnc1-n1cccn1
- cytotoxicity at 70.5 h: 1.46%

Compound: Cc1nnc(NCC(c2cccs2)N2CCCC2)c(C#N)c1C (centres undefined)
- cytotoxicity at 70.5 h: -2.36%

Compound: CC(C)N(CC(N)=O)CC(=O)NCCc1c(F)cccc1F
- cytotoxicity at 70.5 h: -1.87%

Compound: c1cc(CNCc2ccc(Cn3cncn3)cc2)c2c(c1)OCCO2
- cytotoxicity at 70.5 h: -11.4%

Compound: c1cc(CNCc2cccc3c2OCCCO3)cc(Cn2cncn2)c1
- cytotoxicity at 70.5 h: -8.37%
